According to patent EP1247803A2, “Indolinone compounds suitable for modulation of protein kinases” (Sugen, Inc., priority 1996, dated 1998):

Tests used:
FLK-1 receptor = target: T1, FLK-1 receptor (Mus musculus, UniProt P35918); experiment: FLK-1 ELISA (kinase activity of the FLK-1 receptor in FLK-1/NIH3T3 cells, VEGF stimulated); format: cell-based; design: concentration or dose not given beside the values
T1 construct: expressed in transfected cells; host or cells: NIH3T3 C7#3
Procedure, shortened: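 An ELISA using affinity-purified rabbit anti-FLK-1 antiserum on anti-rabbit IgG-coated plates measured VEGF-stimulated FLK-1 kinase activity. NIH3T3 C7#3 cells carrying FLK-1 were serum-starved (0.1% FBS) overnight, then exposed to compound (final 1:200 dilution, 0.5% DMSO) for two hours at 37 °C.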

MET = MET biochemical kinase assay; design: species or system human; concentration or dose not given beside the values
Procedure, shortened: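 Lysate-derived MET, or chimeric receptors, is immobilised on plates through an antibody to the human MET cytoplasmic region. Compounds are added along with kinase buffer supplying ATP and divalent metal ions, and receptor autophosphorylation is quantified by anti-phosphotyrosine ELISA.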

PDGF-R = PDGF-R (Homo sapiens, UniProt P09619); experiment: PDGF-R ELISA; format: cell-based
Chain of PDGF-R (P09619 33-1106, species assumed): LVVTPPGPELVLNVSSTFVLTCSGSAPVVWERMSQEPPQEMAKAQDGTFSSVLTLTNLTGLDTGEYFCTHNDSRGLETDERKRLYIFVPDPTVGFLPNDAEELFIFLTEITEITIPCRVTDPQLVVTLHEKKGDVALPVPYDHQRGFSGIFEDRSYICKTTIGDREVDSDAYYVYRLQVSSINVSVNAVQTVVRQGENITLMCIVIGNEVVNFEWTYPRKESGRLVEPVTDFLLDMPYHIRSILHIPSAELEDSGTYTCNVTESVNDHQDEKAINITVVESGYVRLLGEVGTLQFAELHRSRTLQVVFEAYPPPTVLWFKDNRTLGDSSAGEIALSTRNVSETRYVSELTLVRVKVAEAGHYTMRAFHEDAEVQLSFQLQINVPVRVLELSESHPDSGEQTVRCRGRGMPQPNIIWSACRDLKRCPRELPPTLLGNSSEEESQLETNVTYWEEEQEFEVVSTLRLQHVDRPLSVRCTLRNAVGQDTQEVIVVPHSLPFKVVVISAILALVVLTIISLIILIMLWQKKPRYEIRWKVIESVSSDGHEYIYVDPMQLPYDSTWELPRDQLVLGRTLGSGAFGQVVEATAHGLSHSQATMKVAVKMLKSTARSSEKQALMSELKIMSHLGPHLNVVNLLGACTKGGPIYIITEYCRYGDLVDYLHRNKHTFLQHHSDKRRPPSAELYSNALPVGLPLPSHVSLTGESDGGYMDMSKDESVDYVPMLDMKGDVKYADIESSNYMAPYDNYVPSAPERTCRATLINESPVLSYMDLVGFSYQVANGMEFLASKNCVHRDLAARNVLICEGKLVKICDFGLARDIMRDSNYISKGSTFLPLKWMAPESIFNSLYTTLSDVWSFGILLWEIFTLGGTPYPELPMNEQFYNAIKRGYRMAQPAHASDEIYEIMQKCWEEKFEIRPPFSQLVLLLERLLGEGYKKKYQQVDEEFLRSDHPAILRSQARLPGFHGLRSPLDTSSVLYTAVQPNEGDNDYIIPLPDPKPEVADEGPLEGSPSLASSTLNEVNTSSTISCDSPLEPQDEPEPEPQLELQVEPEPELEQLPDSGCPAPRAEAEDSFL
Source text: A PDGF-R ELISA is described in International Patent Publication No. WO 96/40116, published December 19, 1996 by Tang et al.

T1 sequence (P35918 20-1345): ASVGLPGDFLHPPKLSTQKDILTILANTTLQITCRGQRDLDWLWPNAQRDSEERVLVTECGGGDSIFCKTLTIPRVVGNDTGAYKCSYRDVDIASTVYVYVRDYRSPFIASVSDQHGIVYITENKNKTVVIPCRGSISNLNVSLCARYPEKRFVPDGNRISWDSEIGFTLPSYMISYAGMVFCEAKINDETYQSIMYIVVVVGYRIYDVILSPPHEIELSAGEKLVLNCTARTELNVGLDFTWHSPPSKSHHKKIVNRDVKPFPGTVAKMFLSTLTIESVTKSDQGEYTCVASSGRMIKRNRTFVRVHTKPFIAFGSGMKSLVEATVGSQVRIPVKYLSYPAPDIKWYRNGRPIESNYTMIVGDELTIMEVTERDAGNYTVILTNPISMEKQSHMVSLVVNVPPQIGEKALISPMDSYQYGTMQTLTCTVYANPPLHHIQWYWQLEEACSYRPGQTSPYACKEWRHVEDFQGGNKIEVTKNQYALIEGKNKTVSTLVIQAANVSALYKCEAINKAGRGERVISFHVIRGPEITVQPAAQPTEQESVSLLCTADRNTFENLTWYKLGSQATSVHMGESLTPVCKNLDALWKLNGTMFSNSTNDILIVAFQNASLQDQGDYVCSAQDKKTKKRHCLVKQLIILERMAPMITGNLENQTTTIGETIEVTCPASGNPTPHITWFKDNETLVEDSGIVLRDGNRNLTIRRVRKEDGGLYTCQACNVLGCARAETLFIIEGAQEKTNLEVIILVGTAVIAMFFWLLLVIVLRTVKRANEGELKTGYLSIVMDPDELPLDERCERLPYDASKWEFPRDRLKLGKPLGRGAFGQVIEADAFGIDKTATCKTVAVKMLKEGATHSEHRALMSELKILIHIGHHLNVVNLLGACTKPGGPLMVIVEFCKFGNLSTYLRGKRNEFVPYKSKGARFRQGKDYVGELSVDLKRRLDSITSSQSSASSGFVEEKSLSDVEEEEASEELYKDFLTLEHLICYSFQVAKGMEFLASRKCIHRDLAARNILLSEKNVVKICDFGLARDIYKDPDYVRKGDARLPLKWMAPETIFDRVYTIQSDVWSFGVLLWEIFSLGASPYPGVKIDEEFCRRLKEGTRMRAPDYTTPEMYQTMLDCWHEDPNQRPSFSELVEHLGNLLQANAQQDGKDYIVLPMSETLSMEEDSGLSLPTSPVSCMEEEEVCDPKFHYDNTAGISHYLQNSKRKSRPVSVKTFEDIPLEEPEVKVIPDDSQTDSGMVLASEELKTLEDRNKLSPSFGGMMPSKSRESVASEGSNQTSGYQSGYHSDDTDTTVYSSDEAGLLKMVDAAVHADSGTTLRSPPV

Structure (SMILES) | Fik Kinase %Inhibition (FLK-1 receptor) [%] | Met Kinase % Inhibition (MET) [%] | PDGF Kinase %Inhibition (PDGF-R) [%]
Cc1ccc(C=C2C(=O)Nc3c(Br)cc(Br)cc32)s1 [10717/A07] | -6.4 | 29.2 | 
Cc1c(O)ccc(C=C2C(=O)Nc3c(Br)cc(Br)cc32)c1O [10718/A09] | -18.4 | 67.7 | 
O=C1Nc2c(Br)cc(Br)cc2C1=Cc1ccco1 [10718/A10] | 23.4 | 77.9 | 
O=C1Nc2c(Br)cc(Br)cc2C1=Cc1ccc([N+](=O)[O-])o1 [10718/A11] | 2.7 | 58.9 | 
CCOC(=O)c1c(C)[nH]c(C=C2C(=O)Nc3ccc(I)cc32)c1C [10718/B02] | 7.0 | 52.9 | 
COc1cc(Br)c(O)c(C=C2C(=O)Nc3ccc(I)cc32)c1 [10718/B03] | 1.7 | 77.9 | 
O=C1Nc2ccc(I)cc2C1=Cc1ccc2ccccc2c1O [10718/B04] | 11.8 | 63.9 | 
CCOC(=O)c1cc(C=C2C(=O)Nc3ccc(I)cc32)oc1C [10718/B06] | 16.5 | 78.4 | 
CNS(=O)(=O)c1ccc2c(c1)C(=Cc1cccc(C(F)(F)F)c1F)C(=O)N2 [10728/D07] | 8.1 | 21.8 | 2.3
CNS(=O)(=O)c1ccc2c(c1)C(=Cc1cc(C(F)(F)F)ccc1F)C(=O)N2 [10728/D08] | 13.5 | 34.7 | 2.7
CNS(=O)(=O)c1ccc2c(c1)C(=Cc1c(F)cccc1C(F)(F)F)C(=O)N2 [10728/D09] | 10.5 | 27.6 | -3.9
CNS(=O)(=O)c1ccc2c(c1)C(=Cc1ccccc1OCC(=O)O)C(=O)N2 [10728/D10] | 17.9 | 30.5 | -3.9
CNS(=O)(=O)c1ccc2c(c1)C(=Cc1cc(OC)c3c(c1)OCO3)C(=O)N2 [10728/D11] | 15.9 | 52.5 | -10.2
COc1ccc(OC)c(C=C2C(=O)Nc3ccc(S(=O)(=O)Nc4ccc(C(F)(F)F)cc4)cc32)c1 [10728/E02] | 5.4 | 5.4 | 15.2
COc1cccc(OC)c1C=C1C(=O)Nc2ccc(S(=O)(=O)Nc3ccc(C(F)(F)F)cc3)cc21 [10728/E03] | 13.2 | 11.9 | 12.0
COc1cc(C=C2C(=O)Nc3ccc(S(=O)(=O)Nc4ccc(C(F)(F)F)cc4)cc32)cc(OC)c1 [10728/E04] | 5.5 | 25.6 | 23.2
COc1cc(N(C)C)ccc1C=C1C(=O)Nc2ccc(S(=O)(=O)Nc3ccc(C(F)(F)F)cc3)cc21 [10728/E05] | 17.4 | 53.4 | 5.8
O=C1Nc2ccc(S(=O)(=O)Nc3ccc(C(F)(F)F)cc3)cc2C1=Cc1ccc2c(c1)Cc1ccccc1-2 [10728/E06] | 6.6 | 26.4 | 12.0
O=C1Nc2ccc(S(=O)(=O)Nc3ccc(C(F)(F)F)cc3)cc2C1=Cc1cccc(C(F)(F)F)c1F [10728/E07] | 9.6 | 79.8 | 28.0
O=C1Nc2ccc(S(=O)(=O)Nc3ccc(C(F)(F)F)cc3)cc2C1=Cc1cc(C(F)(F)F)ccc1F [10728/E08] | 15.2 | 46.3 | 29.4
O=C1Nc2ccc(S(=O)(=O)Nc3ccc(C(F)(F)F)cc3)cc2C1=Cc1c(F)cccc1C(F)(F)F [10728/E09] | 9.0 | 40.0 | 22.3

Structure (SMILES) | Fik Kinase %Inhibition (FLK-1 receptor) [%] | Met Kinase % Inhibition (MET) [%] | PDGF Kinase %Inhibition (PDGF-R) [%]
O=C(O)COc1ccccc1C=C1C(=O)Nc2ccc(S(=O)(=O)Nc3ccc(C(F)(F)F)cc3)cc21 [10728/E10] | 24.7 | 57.2 | 13.8
COc1cc(C=C2C(=O)Nc3ccc(S(=O)(=O)Nc4ccc(C(F)(F)F)cc4)cc32)cc2c1OCO2 [10728/E11] | 16.3 | 53.1 | 8.9
COc1ccc(OC)c(C=C2C(=O)Nc3ccc(S(=O)(=O)NN4CCOCC4)cc32)c1 [10728/F02] | 2.9 | 25.6 | 7.2
COc1ccc(OC)c(C=C2C(=O)Nc3ccc(CCCl)cc32)c1 [10728/G02] | 2.3 | 7.1 | 0.9
COc1cccc(OC)c1C=C1C(=O)Nc2ccc(CCCl)cc21 [10728/G03] | 14.3 | 8.8 | -8.4
COc1cc(C=C2C(=O)Nc3ccc(CCCl)cc32)cc(OC)c1 [10728/G04] | 21.8 | 20.9 | 0.5
COc1cc(N(C)C)ccc1C=C1C(=O)Nc2ccc(CCCl)cc21 [10728/G05] | 9.4 | 63.1 | -4.4
O=C1Nc2ccc(CCCl)cc2C1=Cc1ccc2c(c1)Cc1ccccc1-2 [10728/G06] | 13.5 | 25.3 | -13.3
O=C1Nc2ccc(CCCl)cc2C1=Cc1cccc(C(F)(F)F)c1F [10728/G07] | 22.6 | 42.4 | -17.3
O=C1Nc2ccc(CCCl)cc2C1=Cc1cc(C(F)(F)F)ccc1F [10728/G08] | 21.4 | 42.3 | -11.9
O=C1Nc2ccc(CCCl)cc2C1=Cc1c(F)cccc1C(F)(F)F [10728/G09] | 6.8 | 22.2 | 6.3
O=C(O)COc1ccccc1C=C1C(=O)Nc2ccc(CCCl)cc21 [10728/G10] | 10.4 | 27.9 | -0.8
COc1cc(C=C2C(=O)Nc3ccc(CCCl)cc32)cc2c1OCO2 [10728/G11] | 3.2 | 71.4 | -12.8
COc1ccc2ccccc2c1C=C1C(=O)Nc2c(Br)cc(Br)cc21 [10729/A02] | 15.5 | 28.1 | -25.7
COc1ccc(C=C2C(=O)Nc3c(Br)cc(Br)cc32)c2ccccc12 [10729/A03] | 4.7 | 27.5 | 1.9
CSc1ccc(C=C2C(=O)Nc3c(Br)cc(Br)cc32)cc1 [10729/A04] | -4.0 | 45.4 | -16.6
Cc1ccsc1C=C1C(=O)Nc2c(Br)cc(Br)cc21 [10729/A05] | -17.7 | 38.8 | -6.8
O=C1Nc2c(Br)cc(Br)cc2C1=Cc1cccc(Oc2ccccc2)c1 [10729/A06] | -10.9 | 29.8 | -8.6
O=C1Nc2c(Br)cc(Br)cc2C1=Cc1ccccn1 [10729/A07] | -10.0 | 51.1 | -36.7
O=C1Nc2c(Br)cc(Br)cc2C1=Cc1cccnc1 [10729/A08] | -13.3 | 48.1 | -23.4
